Data published in patent publication US10548895B2, “Ligands that target Plasmodium sporozoite binding sites on CD81 and therapeutic methods using them” (American University In Cairo (AUC), priority 2014, dated 2020).
“Also recorded” adds a separate entry of the source. Where two headings read alike, the source gives them in different places.

What was measured:
[1] = biological target: T1, CD81-LEL (Homo sapiens, UniProt P60033); assay: Surface plasmon resonance binding of ligands to immobilized CD81-LEL; conditions: for Binding (change in response units): 3 min association; for Dissociation 1 (change in response units) / Dissociation 2 (change in response units): dissociation interval
T1 construct: A recombinant form of the CD81-LEL protein with a GST tag; gift of Dr. Shoshana Levy, Stanford University
T1 sequence (P60033 113-201 limits assumed): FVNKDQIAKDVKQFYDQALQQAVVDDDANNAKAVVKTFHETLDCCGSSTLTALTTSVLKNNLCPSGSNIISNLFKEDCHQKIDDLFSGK
Description: SPR analysis was performed using a Biacore T200 workstation (GE Healthcare, NJ, USA). A recombinant form of the CD81-LEL protein with a GST tag (generously provided by Dr. Shoshana Levy, Stanford University) was used to confirm, using an established experimental technique, the binding of several ligands to the protein. Briefly, 10 μM CD81-LEL-GST diluted into 10 mM Na-Acetate buffer pH 4.5 was immobilized for 15 min at a flow speed of 5 μl/min onto a CM5 sensor chip using amine-coupling (EDC-NHS), Approximately 20,000 RU of protein were immobilized on the chip. The ligands were prepared as 600 μM solutions in PBS-0.05% Tween-80 (the running buffer) and they were introduced to the protein using a pre-programmed 3 minute association and 1 minute dissociation interval.
SPR analysis was performed using a Biacore T100 workstation (GE Healthcare, NJ, USA). […] Approximately 20,000 RU of protein were immobilized on the chip. The ligands were prepared as 200 uM solutions in PBS-1% DMSO (the running buffer) and they were introduced to the protein using a pre-programmed 3 min association and 1 min dissociation interval.

[2] = biological target: T2, native CD81 on Raji cells (Homo sapiens, UniProt P60033); assay: Antibody neutralizing assay: inhibition of JS-81 anti-CD81 antibody binding on Raji cells (FACS); type: cell-based; conditions: for inhibition at 50 µM / inhibition at 100 µM / inhibition at 400 µM: read-out: Inhibition of JS-81 Binding (%)
T2 construct: endogenous in cells; host or cells: Raji cells (human B cell line)
T2 sequence (P60033 1-236): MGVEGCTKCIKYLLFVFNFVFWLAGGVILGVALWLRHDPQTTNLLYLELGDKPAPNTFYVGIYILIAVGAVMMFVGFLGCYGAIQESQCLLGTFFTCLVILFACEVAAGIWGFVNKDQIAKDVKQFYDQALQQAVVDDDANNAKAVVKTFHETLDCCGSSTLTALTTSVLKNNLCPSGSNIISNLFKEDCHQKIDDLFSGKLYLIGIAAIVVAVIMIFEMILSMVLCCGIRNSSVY
Description: For antibody neutralization assay Raji cells were used, a human B cell line that expressed high amounts of CD81 on the surface (data not shown), Cells were grown in RPMI medium (10% FCS, 1% penicillin/streptomycin, 1% L-glutamine, 1% non-essential amino acids, 1% sodium pyruvate, pH 7.4, at 37° C. with 5% CO2). 2×10^5 cells were incubated with or without different concentrations (50 μM, 100 μM, 400 μM and 1 mM) of indicated inhibitor for 20 min at room temperature, subsequently 1 ul (16 ng/μl) of FITC-labeled anti CD81 antibody (BD Pharmingen, 551108) was added to the cells and incubated for 20 min (antibody titration was performed to obtain a working dilution range, data not shown). Cells were washed and analyzed by FACS (BD FACSCalibur, software: Cell Quest Pro). Mean Fluorescence Intensity MFI was calculated using Flowjo software (TreesStar, www.flowjo.com).

[3] = tested on: Plasmodium falciparum; assay: Sporozoite invasion assay, P. falciparum in HepG2-CD81 cells; type: cell-based; conditions: for Percent Infection: HepG2-CD81, Plasmodium falciparum, 400 uM compound; for effect on infection (in words) / percentage of infection inhibition: P. falciparum; for percentage of infection inhibition: HepG2-CD81
Description: (§1) Anopheles stephensi mosquitoes were fed on mice infected with Plasmodium yoelii 17XNL parasites. On day 14 post bloodmeal, salivary glands were harvested, homogenized, sporozoite number was determined using a hemocytometer and the indicated number of sporozoites was added to cell monolayers, Plasmodium falciparum sporozoites were generated by membrane feeding An. stephensi mosquitoes using gametocyte cultures generated in vitro.
(§2) HepG2-CD81 (14) cells were maintained in DMEM supplemented with 10% fetal calf serum and 1 mM glutamine (DMEM/FCS), mAb 2E6 was used for development assays and is directed against Plasmodium Hsp 70 (15) and mAb 2A10 is directed against the repeat region of P. falciparum CSP and was used for invasion assays.
(§3) 5×10^5 HepG2-CD81 cells were plated on collagen coated Lab-Tek wells and allowed to adhere overnight. The following day, cells were preincubated with 400 uM of compound for 30 minutes at 37° C. Controls were pre-incubated with DMSO at the same concentration in which it was found in the compound solutions. 10^5 sporozoites were added to each well and in the case of P. falciparum, incubated for 1.5 hours and scored for invasion whereas in the case of P. yoelii, incubated for 44 hours and scored for exoerythrocytic stages.

[4] = tested on: Plasmodium yoelii; assay: Sporozoite development assay, P. yoelii in HepG2-CD81 cells; type: cell-based; conditions: for Percent Infection: HepG2-CD81, Plasmodium yoelii, 400 uM compound; for effect on infection (in words) / percentage of infection inhibition: P. yoelii, HepG2-CD81
Description: as §1, §2, §3

[5] = tested on: Plasmodium yoelii; assay: Sporozoite infection assay, P. yoelii in Hepa1-6 cells; type: cell-based; conditions: for Percent Infection: Hepa1-6 Cells, Plasmodium yoelii; for percentage of infection inhibition: P. yoelii, Hepa1-6
[6] = tested on: Plasmodium berghei; assay: Sporozoite infection assay, P. berghei in Hepa1-6 cells; type: cell-based; conditions: for Percent Infection: Hepa1-6 Cells, Plasmodium berghei; for percentage of infection inhibition / effect on infection (in words): P. berghei; for percentage of infection inhibition: Hepa1-6; for effect on infection (in words): Hepa1-6 cells

## c1cncc(C2CCCC[NH2+]2)c1 (stereo in doubt) [Ligand 87504, 3-[(2S)-piperidin-2-yl]pyridine]
[1]; SPR
  binding-dissociation behavior (in words): best binding and dissociation; also recorded: most desirable binding-dissociation behavior; also recorded: best binding-dissociation behavior
  Binding (change in response units): 72 response units
  Dissociation 1 (change in response units): 57.9 response units
  Dissociation 2 (change in response units): 42.6 response units
[2]; Raji
  inhibition at 50 µM: 0%
  inhibition at 100 µM: 6%
  inhibition at 400 µM: 20%

## CC(C)(C)c1ccc(NS(=O)(=O)c2ccc(N)cc2)cc1 [Ligand 7436]
[2]; 50 μM ligand, Raji cells
  Inhibition of JS-81 Binding (%): 0%
[2]; 100 μM ligand, Raji cells
  Inhibition of JS-81 Binding (%): 12%
[2]; 400 μM ligand, Raji cells
  Inhibition of JS-81 Binding (%): 11%

## CCC(C)(C)c1ccc(Oc2cccc(C(=O)O)c2)cc1 [Ligand 7962]
[1]; SPR
  Binding (change in response units): 43.6 response units
  Dissociation 1 (change in response units): 14.7 response units
  Dissociation 2 (change in response units): 10.1 response units
[2]; 50 μM ligand, Raji cells
  inhibition at 50 µM: 0%
[2]; 100 μM ligand, Raji cells
  inhibition at 100 µM: 0%
[2]; 400 μM ligand, Raji cells
  inhibition at 400 µM: 19%
[3]
  Percent Infection: 0%
  effect on infection (in words): inhibit the infection
  percentage of infection inhibition: 100%
[4]
  Percent Infection: 0%
  effect on infection (in words): inhibit; also recorded: strongest inhibitory effect
  percentage of infection inhibition: 100%
[5]
  Percent Infection: 0%
  percentage of infection inhibition: 100%
[6]
  Percent Infection: 0%
  percentage of infection inhibition: 100%
  effect on infection (in words): Inhibition

## O=C(O)c1ccc(N2CCCCC2)cc1O [Ligand 23895]
[2]; 50 μM ligand, Raji cells
  Inhibition of JS-81 Binding (%): 0%
[2]; 100 μM ligand, Raji cells
  Inhibition of JS-81 Binding (%): 0%
[2]; 400 μM ligand, Raji cells
  Inhibition of JS-81 Binding (%): 17%

## Cc1ccc(-c2cc(C(=O)O)c3ccccc3n2)c(C)c1 [Ligand 25678]
[2]; 50 μM ligand, Raji cells
  Inhibition of JS-81 Binding (%): 0%
[2]; 100 μM ligand, Raji cells
  Inhibition of JS-81 Binding (%): 4%
[2]; 400 μM ligand, Raji cells
  Inhibition of JS-81 Binding (%): 19%

## O=C(O)c1cc2cc(OCc3ccccc3)ccc2[nH]1 [Ligand 30930, 5-phenylmethoxy-1H-indole-2-carboxylic acid]
[1]; SPR
  Binding (change in response units): 38.6 response units
  Dissociation 1 (change in response units): 26.8 response units
  Dissociation 2 (change in response units): 21.8 response units
[2]; 50 μM ligand, Raji cells
  inhibition at 50 µM: 0%
[2]; 100 μM ligand, Raji cells
  inhibition at 100 µM: 0%
[2]; 400 μM ligand, Raji cells
  inhibition at 400 µM: 14%

## NC(N)=N/N=C\c1c(Cl)cccc1Cl [Ligand 68982]
[2]; 50 μM ligand, Raji cells
  Inhibition of JS-81 Binding (%): 0%
[2]; 100 μM ligand, Raji cells
  Inhibition of JS-81 Binding (%): 13%
[2]; 400 μM ligand, Raji cells
  Inhibition of JS-81 Binding (%): 15%

## COc1cc(-c2ccc(Nc3ccccc3C(=O)O)c(OC)c2)ccc1Nc1ccccc1C(=O)O [Ligand 73735, 2-[4-[4-(2-carboxylatoanilino)-3-methoxyphenyl]-2-methoxyanilino]benzoate]
[1]
  binding to CD81 by SPR (in words): bind to CD81-LEL
[2]; 50 μM ligand, Raji cells
  inhibition at 50 µM: 0%
[2]; 100 uM and 400 uM
  inhibition of anti-CD81 binding (in words): inhibit anti-CD81 binding to CD81-LEL in a dose dependent manner
[2]; 100 μM ligand, Raji cells
  inhibition at 100 µM: 0%
[2]; 400 μM ligand, Raji cells
  inhibition at 400 µM: 24%
[3]
  Percent Infection: 3.2%
  effect on infection (in words): inhibit the infection
  percentage of infection inhibition: 96.8%
[4]
  Percent Infection: 23%
  effect on infection (in words): inhibit; also recorded: inhibitory effect
  percentage of infection inhibition: 77%
[5]
  Percent Infection: 38.3%
  percentage of infection inhibition: 61.7%
[6]
  Percent Infection: 17.7%
  percentage of infection inhibition: 82.3%
  effect on infection (in words): Inhibition

## CNC1(C(N)=O)CCNCC1 [Ligand 75846]
[2]; 50 μM ligand, Raji cells
  Inhibition of JS-81 Binding (%): 0%
[2]; 100 μM ligand, Raji cells
  Inhibition of JS-81 Binding (%): 0%
[2]; 400 μM ligand, Raji cells
  Inhibition of JS-81 Binding (%): 52%
